Entries after “also recorded” stand apart in the source; their conditions may differ. Like-named read-outs stand apart in the source and are kept apart here. Square brackets hold non-standard residues; d marks the D form. Ends that are not written are not given here. Peptide text beside a SMILES is read from it. * marks the point of attachment. Fmoc = O=C(OCC1c2ccccc2-c2ccccc21)*; Palmitoyl = CCCCCCCCCCCCCCCC(=O)*; Cha = N[C@@H](CC1CCCCC1)C(=O)O; AMC = Cc1cc(=O)oc2cc(N*)ccc12; Ahx = NCCCCCC(=O)O; Sar = CNCC(=O)O
Tests used:
[1] = target: galanin receptors; conditions: truncation of GAL(1-16) fragment; read-out: KD towards galanin receptors; cited from earlier work
[2] = target: T1, hGalR2 (Homo sapiens, UniProt O43603); conditions: cited from earlier work
T1 sequence (O43603 1-387): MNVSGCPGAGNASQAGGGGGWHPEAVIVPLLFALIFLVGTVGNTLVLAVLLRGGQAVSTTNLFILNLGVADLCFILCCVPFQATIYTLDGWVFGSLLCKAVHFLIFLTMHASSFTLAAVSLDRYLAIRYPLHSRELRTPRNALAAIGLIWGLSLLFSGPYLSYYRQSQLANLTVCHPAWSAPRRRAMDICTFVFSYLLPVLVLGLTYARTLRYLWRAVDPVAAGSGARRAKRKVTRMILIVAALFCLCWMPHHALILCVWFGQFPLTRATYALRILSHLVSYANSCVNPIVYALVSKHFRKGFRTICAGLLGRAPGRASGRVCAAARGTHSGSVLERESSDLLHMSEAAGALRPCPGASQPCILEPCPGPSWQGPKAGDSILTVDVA

[3] = test system: 6 Hz limbic seizures; test: 6 Hz limbic (psychomotor) seizure test; assay type: in vivo, CF-1 mice; conditions: for % Protection at 1 hour: model not printed at tables, ED50s of same analogs called 6 Hz model; for dose in parentheses in Table 14 (ED50): not labelled in table
Description: Mice not displaying limbic seizures were considered protected.

[4] = Toxicity (motor impairment) noted in the SAR screen; assay type: in vivo, mice; conditions: 4 mg/kg, i.p.
Description: Minimal toxicity will be identified in mice by the rotarod procedure (Dunham and Miya, 1957). When a mouse is placed on a 1-inch knurled rod that rotates at a speed of 6 r.p.m., the animal can maintain its equilibrium for long periods of time. The animal is considered toxic if it falls off this rotating rod three times during a 1-minute period.
SAR studies have been carried out in an effort to better understand structural determinants of its activity following systemic administration. […] Presence of the Lys-palm residue was insufficient to produce any observable anticonvulsant activity.

[5] = test system: formalin-induced paw licking; test: Mouse formalin test; assay type: in vivo; conditions: for Active at (flat phase II): mouse formalin assay of inflammatory pain
Description: An injection of 0.5% formalin is made into the planter region of a mouse right hind paw. This elicits a distinct biphasic behavioral profile characterized by the mouse licking the affected paw. Immediately following the injection the mouse licks the paw for about 10 minutes. This is phase 1 (acute) and is followed by a brief latent period where there is little behavioral activity. A more prolonged period of about 20 to 30 minutes of paw licking ensues which constitutes phase 2 (inflammatory).
Prior to the administration of the active peptide, drug or vehicle each mouse undergoes a 15-minute conditioning period in one of several 6″ tall plexiglass observation tubes (4″ diameter) that are placed in front of a mirror. […] One hour after treatment, formalin was injected sub-dermally (20 μl; 27 gauge needle) into the plantar surface of the right hind foot. The bevel of the needle is placed facing down toward the skin surface. Following the injection of the formalin each animal is observed for first 2 minutes of each 5 minute epoch for a total of 45 minutes. The cumulative length of licking for each 2 minute time period was measured. An animal receiving the requisite volume of vehicle was alternated with each mouse given GAL-BBB2, Gal 1-16, or gabapentin. Animals were euthanized following the conclusion of the experiment.
Area under the curve (AUC) determination was made using the GraphPad Prism Version 3.03. Total AUC is calculated for both the test and control groups for both the acute and inflammatory phases. The AUC for individual animals for each phase is also calculated and converted to percentage of total AUC of control. The average percentages and SEM for both the drug treated and control were calculated and tested for significant difference.

[6] = test system: seizures (6 Hz limbic seizure model); conditions: 4 mg/kg, i.p.
[7] = test system: sound-induced seizures; test: Frings audiogenic seizure-susceptible mouse model; assay type: in vivo; conditions: 4 mg/kg i.p., 15-240 min; also higher dose of 12 mg/kg
Description: The two modified galanin analogs (GAL-BBB1 and GAL-BBB2) were administered i.p. to a group of Frings audiogenic seizure susceptible mice in a dose of 4 mg/kg. At various times after administration (i.e., 15, 30, 60, 120, and 240 min) each mouse was placed into a cylindrical test chamber fitted with an audio transducer and challenged with a high-intensity sound stimulus (110 dB, 11 KHz for 20 sec). Animals not displaying tonic hind-limb extension were considered protected. […] In a subsequent study, anticonvulsant efficacy was quantitated at the time to peak effect (i.e., 1 h) in a dose-response study.
The ability of individual modified analogs to prevent seizures induced by sound in the AGS-susceptible Frings mouse model can be assessed at the time of peak effect (White et al., 1992). For this test, individual mice are placed into a plexiglass cylinder (diameter, 15 cm; height, 18 cm) fitted with an audio transducer (Model AS-ZC; FET Research and Development, Salt Lake City, Utah), and exposed to a sound stimulus of 110 decibels (11 KHz) delivered for 20 seconds. Sound-induced seizures are characterized by wild running followed by loss of righting reflex with forelimb and hindlimb tonic extension. Mice not displaying hindlimb tonic extension are considered protected.
At various times after administration (i.e., 15, 30, 60, 120, and 240 min) each mouse was placed into a cylindrical test chamber fitted with an audio transducer and challenged with a high-intensity sound stimulus (110 dB, 11 KHz for 20 sec).

CC(C)C[C@H](NC(=O)[C@H](CC(C)C)NC(=O)[C@H](Cc1ccc(O)cc1)NC(=O)CNC(=O)[C@H](C)NC(=O)[C@H](CO)NC(=O)[C@H](CC(N)=O)NC(=O)[C@H](CC(C)C)NC(=O)[C@@H](NC(=O)[C@H](Cc1c[nH]c2ccccc12)NC(=O)CN)[C@@H](C)O)C(=O)NCC(=O)O [Fragment 1-12]
Kd [1]: 3 µM

CC(C)C[C@H](NC(=O)[C@H](CC(C)C)NC(=O)[C@H](Cc1ccc(O)cc1)NC(=O)CNC(=O)[C@H](C)NC(=O)[C@H](CO)NC(=O)[C@H](CC(N)=O)NC(=O)[C@H](CC(C)C)NC(=O)[C@@H](NC(=O)[C@H](Cc1c[nH]c2ccccc12)NC(=O)CN)[C@@H](C)O)C(=O)NCC(=O)N1CCC[C@H]1C(=O)N[C@@H](Cc1c[nH]cn1)C(=O)O [Fragment 1-14]
Kd [1]: 0.15 µM

Cc1cc(=O)oc2cc(NC(=O)[C@H](CCCCN)NC(=O)[C@H](CC3CCCCC3)NC(=O)OCC3c4ccccc4-c4ccccc43)ccc12 [Galnon] (Fmoc-[Cha]-Lys-{AMC})
Kd ([2]; Table 2, reference ligands, same values as Table 18, read-out: affinity toward galanin receptors, GalR2): 24 µM
Kd ([2]; Table 18, compiled from literature, read-out: Affinity, KD hGalR2): 24 µM

CC[C@@H](C(N)=O)N1CCCC1=O [Levetiracetam, reference compound]
maximum protection against 6 Hz limbic seizures ([3]; 6 Hz (44 mA), 1000 mg/kg, alone): ≤ 50%

CNCC(=O)N[C@@H](Cc1c[nH]c2ccccc12)C(=O)N[C@H](C(=O)N[C@@H](CC(C)C)C(=O)N[C@@H](CC(N)=O)C(=O)N[C@@H](CO)C(=O)N[C@@H](C)C(=O)NCC(=O)N[C@@H](Cc1ccc(O)cc1)C(=O)N[C@@H](CC(C)C)C(=O)N[C@@H](CC(C)C)C(=O)NCC(=O)N1CCC[C@H]1C(=O)N[C@@H](CCCCN)C(=O)N[C@@H](CCCCN)C(=O)N[C@@H](CCCCN)C(=O)N[C@@H](CCCCN)C(N)=O)[C@@H](C)O [NAX 1105-2]
toxicity (motor impairment) [4]: toxicity (motor impairment); also recorded: toxic
% Protection at 1 hour ([3]; 4 mg/kg, i.p.): 30%
% Protection at 2 hours ([3]; 4 mg/kg, i.p.): 0%
% Protection at 4 hours ([3]; 4 mg/kg, i.p.): 0%
ED50 in the 6 Hz model ([3]; i.p.): 3.8 mg/kg
dose in parentheses in Table 14 (ED50) ([3]; i.p.): 3.7 mg/kg

CCCCCCCCCCCCCCCC(=O)NCCCC[C@H](NC(=O)[C@H](CCCCN)NC(=O)[C@H](CCCCN)NC(=O)[C@H](CCCCN)NC(=O)[C@H](CCCCN)NC(=O)[C@H](CC(C)C)NC(=O)[C@H](CC(C)C)NC(=O)[C@H](Cc1ccc(O)cc1)NC(=O)CNC(=O)[C@H](C)NC(=O)[C@H](CO)NC(=O)[C@H](CC(N)=O)NC(=O)[C@H](CC(C)C)NC(=O)[C@@H](NC(=O)[C@H](Cc1c[nH]c2ccccc12)NC(=O)CNC)[C@@H](C)O)C(=O)N[C@@H](CCCCN)C(N)=O [NAX 1205-4] (H-[Sar]WTLNSAGYLLKKKKK(Palmitoyl)K-NH2)
toxicity (motor impairment) [4]: toxic

(Sar)WTLNSAGY(Ahx)KK(Lys-P)K [NAX 306-4]
% Protection at 1 hour ([3]; 4 mg/kg, i.p.): 50%
% Protection at 2 hours ([3]; 4 mg/kg, i.p.): 0%
% Protection at 4 hours ([3]; 4 mg/kg, i.p.): 0%
ED50 in the 6 Hz model ([3]; i.p.): 2.95 mg/kg
dose in parentheses in Table 14 (ED50) ([3]; i.p.): 2.95 mg/kg
activity in second response phase of inflammatory pain assay ([5]; 2.95 mg/kg): very active
Active at (flat phase II) [5]: 2.9 mg/kg (“flat phase II”)

(Sar)WTLNSAGYKK(Lys-P)K [NAX 306-3]
Active at (flat phase II) [5]: 2.7 mg/kg (“flat phase II”)

(Sar)WTLNSAGYLLGPDKDK(Lys-P)DK (XWTLNSAGYLLGPXXXX; N-terminal Sar; C-terminal (Lys-P)DK; MOD_RES 1 Xaa = MeGly; VARIANT 14, 15, 17 Xaa = D-Lys; MOD_RES 16 Xaa = Lys-palm) [NAX 1205-2]
% Protection at 1 hour ([3]; 4 mg/kg, i.p.): 100%
% Protection at 2 hours ([3]; 4 mg/kg, i.p.): 50%
% Protection at 4 hours ([3]; 4 mg/kg, i.p.): 75%
ED50 in the 6 Hz model ([3]; i.p.): 1.2 mg/kg
dose in parentheses in Table 14 (ED50) ([3]; i.p.): 1.2 mg/kg

(Sar)WTLNSAGYLLGPHA(Lys-P) [306-5]
% Protection at 1, 2 and 4 hours (result in words) ([3]; 4 mg/kg, i.p.): Not active

(Sar)WTLNSAGYLLGPRR(Lys-P)R [NAX 1205-3]
% Protection at 1 hour ([3]; 4 mg/kg, i.p.): 100%
% Protection at 2 hours ([3]; 4 mg/kg, i.p.): 75%
% Protection at 4 hours ([3]; 4 mg/kg, i.p.): 0%

DPhe-Cys-Phe-DTrp-Lys-Thr-Cys-Thr-NH2 [DPhe-Cys-Phe-DTrp-Lys-Thr-Cys-Thr-N2, reference compound]
% Protection at 30 min [6]: 50%

GWTLNSAGY [Fragment 1-9]
Kd [1]: 100 µM

GWTLNSAGYL [Fragment 1-10]
Kd [1]: 25 µM

Lys-Lys-Lys(palm)-Lys-Ahx-DPhe-Cys-Phe-DTrp-Lys-Thr-Cys-Thr-NH2
% Protection at 30 min [6]: 100%

Sar-Trp-Thr-Leu-Asn-Ser-Ala-Gly-Tyr-Leu-Leu-Gly-Pro-His-(Lys-palm)-Tle-NH2 [GAL-BBB1]
anticonvulsant activity [7]: not active at any time point tested

WAGGDFSGE [DSIP, reference compound]
activity against 6 Hz (22 mA) limbic seizures ([3]; administered directly into the ventricular space, 22 mA): effective
% Protection at 30 min [6]: 0%

WTLNSAGYLLGPKK(Lys-P)K (not fully specified (C-terminus)) [NAX 1205-1]
% Protection at 1 hour ([3]; 4 mg/kg, i.p.): 50%
% Protection at 2 hours ([3]; 4 mg/kg, i.p.): 50%
% Protection at 4 hours ([3]; 4 mg/kg, i.p.): 0%
ED50 in the 6 Hz model ([3]; i.p.): 5.7 mg/kg
dose in parentheses in Table 14 (ED50) ([3]; i.p.): 5.7 mg/kg

[Ahx]GGWAGGDFSGE
% Protection at 30 min [6]: 50%
% Protection after 2 hours ([6]; 2 hours): (100% after

From patent publication US20180340012A1, “METHODS AND CO[…] TO IMPROVING PROPERTIES OF PHARMACOLOGICAL AGENTS TARGETING NERVOUS SYSTEM” (University of Utah Research Foundation, priority 2006, published 2018)
